From ChEMBL document CHEMBL1132669, “New generation dopaminergic agents. 7. Heterocyclic bioisosteres that exploit the 3-OH-phenoxyethylamine D2 template” (Bioorg Med Chem Lett, 1999)
Active and inactive are the calls of the source. No cut-off for these calls is given here.

Legend:
D(2) dopamine receptor [1] = biological target: T1, D(2) dopamine receptor (Rattus norvegicus, UniProt P61169); assay: Inhibition of [3H]spiperone binding to rat striatal membrane Dopamine receptor D2 low affinity without GTP and sodium
T1 sequence (P61169 whole entry): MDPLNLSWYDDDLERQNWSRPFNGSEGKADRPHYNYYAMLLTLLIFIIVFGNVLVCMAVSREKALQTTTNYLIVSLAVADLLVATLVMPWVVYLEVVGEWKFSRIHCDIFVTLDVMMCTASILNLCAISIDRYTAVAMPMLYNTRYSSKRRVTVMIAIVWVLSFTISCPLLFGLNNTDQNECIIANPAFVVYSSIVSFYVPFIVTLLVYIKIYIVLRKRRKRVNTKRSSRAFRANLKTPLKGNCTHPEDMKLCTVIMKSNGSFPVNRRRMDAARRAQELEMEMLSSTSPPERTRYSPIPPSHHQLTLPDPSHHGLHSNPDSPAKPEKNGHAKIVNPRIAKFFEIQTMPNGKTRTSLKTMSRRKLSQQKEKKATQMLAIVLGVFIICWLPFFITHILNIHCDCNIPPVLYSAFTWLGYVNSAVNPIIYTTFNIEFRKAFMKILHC

D(3) dopamine receptor = D(3) dopamine receptor (Homo sapiens, UniProt P35462); assay: Inhibition of [3H]spiperone binding to human Dopamine receptor D3 in CHO cell membranes
Sequence of D(3) dopamine receptor (P35462 whole entry): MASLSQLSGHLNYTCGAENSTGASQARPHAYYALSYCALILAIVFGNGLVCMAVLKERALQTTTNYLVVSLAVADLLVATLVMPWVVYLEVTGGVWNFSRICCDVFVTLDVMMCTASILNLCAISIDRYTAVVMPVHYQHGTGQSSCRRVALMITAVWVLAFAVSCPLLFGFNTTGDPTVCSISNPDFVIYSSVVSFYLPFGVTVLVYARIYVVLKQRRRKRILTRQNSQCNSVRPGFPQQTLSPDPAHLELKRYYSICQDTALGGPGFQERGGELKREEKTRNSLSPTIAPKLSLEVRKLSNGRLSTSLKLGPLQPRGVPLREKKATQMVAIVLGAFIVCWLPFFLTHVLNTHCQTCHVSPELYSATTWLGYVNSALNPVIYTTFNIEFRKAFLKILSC

D(2) dopamine receptor [2] = biological target: D(2) dopamine receptor (Homo sapiens, UniProt P14416); assay: Inhibition of [3H]spiperone binding to human Dopamine receptor D2 in CHO cell membranes
Sequence of D(2) dopamine receptor (Homo sapiens, UniProt P14416) (P14416 whole entry): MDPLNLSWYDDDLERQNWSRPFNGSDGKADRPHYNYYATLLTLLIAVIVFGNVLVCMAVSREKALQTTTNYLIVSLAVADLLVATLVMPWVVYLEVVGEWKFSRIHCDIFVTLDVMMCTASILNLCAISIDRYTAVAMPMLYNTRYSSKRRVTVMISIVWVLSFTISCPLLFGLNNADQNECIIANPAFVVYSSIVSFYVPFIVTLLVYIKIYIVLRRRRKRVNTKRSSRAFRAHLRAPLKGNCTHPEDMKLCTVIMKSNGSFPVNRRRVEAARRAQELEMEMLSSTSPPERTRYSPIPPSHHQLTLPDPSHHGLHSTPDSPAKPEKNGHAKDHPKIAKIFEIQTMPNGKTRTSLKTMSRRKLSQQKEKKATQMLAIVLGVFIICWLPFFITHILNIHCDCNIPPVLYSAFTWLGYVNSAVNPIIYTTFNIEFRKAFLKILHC

D(4) dopamine receptor = biological target: T2, D(4) dopamine receptor (Homo sapiens, UniProt P21917); assay: Inhibition of [3H]spiperone binding to human Dopamine receptor D4.4 expressed in CHO cell membranes
T2 sequence (P21917 whole entry): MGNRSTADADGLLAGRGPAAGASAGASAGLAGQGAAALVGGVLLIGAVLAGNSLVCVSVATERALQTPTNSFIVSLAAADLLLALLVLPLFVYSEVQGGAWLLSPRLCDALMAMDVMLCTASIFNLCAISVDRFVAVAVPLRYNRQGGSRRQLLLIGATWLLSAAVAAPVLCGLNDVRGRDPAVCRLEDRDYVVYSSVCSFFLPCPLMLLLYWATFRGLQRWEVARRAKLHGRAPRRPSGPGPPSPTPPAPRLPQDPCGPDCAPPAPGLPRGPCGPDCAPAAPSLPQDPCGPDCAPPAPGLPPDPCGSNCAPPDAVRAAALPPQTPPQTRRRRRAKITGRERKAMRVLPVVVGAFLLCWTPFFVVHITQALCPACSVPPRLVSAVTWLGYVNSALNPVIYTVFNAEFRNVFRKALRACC

D(2) dopamine receptor [3] = biological target: T1, D(2) dopamine receptor; assay: Inhibition of [3H]quinpirole binding to rat striatal membrane Dopamine receptor D2 without GTP and sodium
[4] = biological target: D(2) dopamine receptor (Rattus norvegicus) (UniProt P61169); assay: Relative binding affinity for low and hugh affinity type dopamine D2 receptors in rat striatal membranes; assay type: cell membranes; conditions: Striatum, Membrane
Sequence of D(2) dopamine receptor (Rattus norvegicus) (P61169 whole entry): as the sequence (P61169 whole entry) above

Mus musculus [5] = assay: In vivo inhibitory activity against spontaneous locomotory activity in mice administered subcutaneously; assay type: functional; conditions: sc
Mus musculus [6] = assay: Inhibitory activity against Sterotypy in mice administered subcutaneously at 3 mg/kg; NS is not significant; assay type: functional, organism-based; set-up: dose 3 mg/kg
Mus musculus [7] = assay: Inhibitory activity against apomorphine-induced climbing in mice administered subcutaneously at 3 mg/kg; NS is not significant; assay type: functional, organism-based; set-up: dose 3 mg/kg
Mus musculus [8] = assay: Inhibitory activity against apomorphine-induced climbing in mice administered subcutaneously; assay type: functional; conditions: sc
Mus musculus [9] = assay: Inhibitory activity against Sterotypy in mice administered subcutaneously; assay type: functional; conditions: sc

Ki (D(2) dopamine receptor [1]) [nM]	Ki (D(3) dopamine receptor) [nM]	Ki (D(2) dopamine receptor [2]) [nM]	Ki (D(4) dopamine receptor) [nM]	Ki (D(2) dopamine receptor [3]) [nM]	Ratio [4]	Compound	ED50 (Mus musculus [5]) [mg/kg]	ED50 (Mus musculus [6])	ED50 (Mus musculus [7])	ED50 (Mus musculus [8]) [mg/kg]	ED50 (Mus musculus [9]) [mg/kg]
2.6	2	3	3.8	0.18		S=c1[nH]c2cccc(OCCNCc3ccccc3)c2[nH]1					
35.9	8.8	79.8	315	1.1	33	c1ccc(CNCCOc2cccc3[nH]ncc23)cc1					
11.6	41.8	32.4	7	0.71	16	FC(F)(F)c1nc2c(OCCNCc3ccccc3)cc(Cl)cc2[nH]1	0.35	inactive	inactive		
4.7			6.3	0.18		O=c1[nH]c2cccc(OCCNCc3ccccc3)c2[nH]1					
128	67.2	85.6	51.6	9.8		c1ccc(CNCCOc2cccc3nc[nH]c23)cc1					
					14	Sc1nc2c(OCCNCc3ccccc3)cccc2[nH]1					
					28	Oc1cccc(OCCNCc2ccccc2)c1					
					11	Oc1nc2c(OCCNCc3ccccc3)cc(Cl)cc2[nH]1					
2.7	7.4	2.6	15.8	0.25		O=c1[nH]c2cc(Cl)cc(OCCNCc3ccccc3)c2[nH]1					
4.5	12.2	6.5	11.2	0.21	21	Sc1nc2c(OCCNCc3ccccc3)cc(Cl)cc2[nH]1					
26.6	94.6	15.2	61.1	4.4	6	Cc1nc2c(OCCNCc3ccccc3)cccc2[nH]1					
					13	c1ccc(CNCCOc2cccc3[nH]cnc23)cc1					

Compound	Ki (D(2) dopamine receptor [1]) [nM]	Ki (D(3) dopamine receptor) [nM]	Ki (D(2) dopamine receptor [2]) [nM]	Ki (D(4) dopamine receptor) [nM]	Ki (D(2) dopamine receptor [3]) [nM]	Ratio [4]	ED50 (Mus musculus [5]) [mg/kg]	ED50 (Mus musculus [6])	ED50 (Mus musculus [7])	ED50 (Mus musculus [8]) [mg/kg]	ED50 (Mus musculus [9]) [mg/kg]
FC(F)(F)c1nc2c(OCCNCc3ccccc3)cccc2[nH]1	1.9	1.15	1.75	3.1	0.18	10	0.007			0.09	0.33
O=C1Cc2c(cccc2OCCNCc2ccccc2)N1		2.8	4.25	10		54					
c1ccc(CNCCOc2cccc3[nH]ccc23)cc1		19.5	81.8	230		4					
